Results from patent US8008303B2, “Biphenyl derivatives and their use in treating hepatitis C” (AstraZeneca AB, priority 2005, dated 2011).
Like-named read-outs stand apart in the source and are kept apart here.

Columns and labels:
[1] = test system: HCV replicon cells Huh 9B; format: cell-based
[2] = test system: HCV replicon cells Huh 9B; assay: HCV replicon assay (luciferase readout); format: cell-based
Summary of the method: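 Compounds, made up at twice final strength (final DMSO 1%), were added to subgenomic replicon cells one day after plating. Incubation then ran 72 h at 37 °C, 5% CO2, without G418. Replication was quantified as firefly luciferase luminescence in lysed cells, with cytotoxicity assessed on a duplicate clear plate.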

[3] = concentration reducing total cell area by 50% relative to DMSO controls, methylene blue, absorbance 620 nm, 72 h incubation
[4] = Hepatitis C virus, 72 h, concentration reducing replicon level (luciferase activity) by 50% vs untreated cell control, 72 h incubation

Structure (SMILES) | TD50 [1, 3] | IC50 [2, 4] [µM] | TD50 [1] | IC50 [2] [µM]
CCCS(=O)(=O)N1CCN(Cc2ccc(NC(=O)c3ccc(-c4cc(NC(=O)[C@@H]5CCCN5)ccc4OC(F)(F)F)cc3)cc2)CC1 [Example 236, (S)-Pyrrolidine-2-carboxylic acid (4′-{4-[4-(propane-1-sulfonyl)-piperazin-1-ylmethyl]-phenylcarbamoyl}-6-trifluoromethoxy-biphenyl-3-yl)-amide] | * (* < 50 μM) | 1 to 5 |  | 
CCCS(=O)(=O)N1CCN(Cc2ccc(NC(=O)c3ccc(-c4cc(NC(=O)C5CC5)ccc4OC(F)(F)F)cc3)cc2)CC1 [Example 237, 5′-(Cyclopropanecarbonyl-amino)-2′-trifluoromethoxy-biphenyl-4-carboxylic acid {4-[4-(propane-1-sulfonyl)-piperazin-1-ylmethyl]-phenyl}-amide] | * (* < 50 μM) | < 1 |  | 
CCCS(=O)(=O)N1CCN(Cc2ccc(NC(=O)c3ccc(-c4cc(NC(=O)[C@@H]5CCCCN5)ccc4OC(F)(F)F)cc3)cc2)CC1 [Example 238, (S)-Piperidine-2-carboxylic acid (4′-{4-[4-(propane-1-sulfonyl)-piperazin-1-ylmethyl]-phenylcarbamoyl}-6-trifluoromethoxy-biphenyl-3-yl)-amide] | * (* < 50 μM) | < 1 |  | 
CN1CCN(C(=O)Nc2ccc(OC(F)(F)F)c(-c3ccc(C(=O)Nc4ccc(CN5CCN(S(C)(=O)=O)CC5)cc4)cc3)c2)CC1 [Example 239, 4-Methyl-piperazine-1-carboxylic acid {4′-[4-(4-methanesulfonyl-piperazin-1-ylmethyl)-phenylcarbamoyl]-6-trifluoromethoxy-biphenyl-3-yl}-amide] | * (* < 50 μM) | < 1 |  | 
CNCC(=O)Nc1ccc(OC(F)(F)F)c(-c2ccc(C(=O)Nc3ccc(CN4CCN(S(=O)(=O)N(C)C)CC4)cc3)cc2)c1 [Example 240, 5′-(2-Methylamino-acetylamino)-2′-trifluoromethoxy-biphenyl-4-carboxylic acid [4-(4-dimethylsulfamoyl-piperazin-1-ylmethyl)-phenyl]-amide] | * (* < 50 μM) | < 1 |  | 
CS(=O)(=O)N1CCN(Cc2ccc(NC(=O)c3ccc(-c4cc(NC(=O)[C@@H]5CCN5C(=O)O)ccc4OC(F)(F)F)cc3)cc2)CC1 [Example 241, (S)-2-{4′-[4-(4-Methanesulfonyl-piperazin-1-ylmethyl)-phenylcarbamoyl]-6-trifluoromethoxy-biphenyl-3-ylcarbamoyl}-azetidine-1-carboxylic acid] | * (* < 50 μM) | < 1 |  | 
Cc1ccc(NC(=O)C2CCCCC2)cc1-c1ccc(C(=O)Nc2ccc(CCN3CCS(=O)(=O)CC3)cc2)cc1 [Example 242, 5′-(Cyclohexanecarbonyl-amino)-2′-methyl-biphenyl-4-carboxylic acid {4-[2-(1,1-dioxo-1lambda*6*-thiomorpholin-4-yl)-ethyl]-phenyl}-amide] | * (* < 50 μM) | 1 to 5 |  | 
CCCS(=O)(=O)N1CCN(Cc2ccc(NC(=O)c3ccc(-c4cc(NC(=O)C5CC5)ccc4C)cc3)cc2)CC1 [Example 243, 5′-(Cyclopropanecarbonyl-amino)-2′-methyl-biphenyl-4-carboxylic acid [4-(4-propane-1-sulfonyl-piperazin-1-ylmethyl)-phenyl]-amide] | * (* < 50 μM) | < 1 |  | 
COc1ccc(S(=O)(=O)Nc2ccc(N3CCOCC3)cc2)cc1-c1ccc(C(=O)Nc2ccc(CN3CCS(=O)(=O)CC3)cc2)cc1 [Example 244, 2′-Methoxy-5′-(4-morpholin-4-yl-phenylsulfamoyl)-biphenyl-4-carboxylic acid [4-(1,1-dioxo-1lambda*6*-thiomorpholin-4-ylmethyl)-phenyl]-amide] | * (* < 50 μM) | < 1 |  | 
COc1ccc(S(=O)(=O)Nc2ccc(N3CCOCC3)cc2)cc1-c1ccc(C(=O)Nc2ccc(CN3CCN(S(C)(=O)=O)CC3)cc2)cc1 [Example 245, 2′-Methoxy-5′-(4-morpholin-4-yl-phenylsulfamoyl)-biphenyl-4-carboxylic acid [4-(4-methanesulfonyl-piperazin-1-ylmethyl)-phenyl]-amide] | * (* < 50 μM) | < 1 |  | 
COc1ccc(S(=O)(=O)Nc2ccc(N3CCOCC3)cc2)cc1-c1ccc(C(=O)Nc2ccc(CN3CCN(S(=O)(=O)C(C)C)CC3)cc2)cc1 [Example 246, 2′-Methoxy-5′-(4-morpholin-4-yl-phenylsulfamoyl)-biphenyl-4-carboxylic acid [4-(4-propane-2-sulfonyl-piperazin-1-ylmethyl)-phenyl]-amide] | * (* < 50 μM) | < 1 |  | 
COc1ccc(S(=O)(=O)Nc2ccc(N3CCOCC3)cc2)cc1-c1ccc(C(=O)Nc2ccc(CN3CCN(S(=O)(=O)N(C)C)CC3)cc2)cc1 [Example 247, 2′-Methoxy-5′-(4-morpholin-4-yl-phenylsulfamoyl)-biphenyl-4-carboxylic acid [4-(4-dimethylsulfamoyl-piperazin-1-ylmethyl)-phenyl]-amide] | * (* < 50 μM) | < 1 |  | 
CCCS(=O)(=O)N1CCN(Cc2ccc(NC(=O)c3ccc(-c4cc(S(=O)(=O)Nc5ccc(N6CCOCC6)cc5)ccc4OC)cc3)cc2)CC1 [Example 248, 2′-Methoxy-5′-(4-morpholin-4-yl-phenylsulfamoyl)-biphenyl-4-carboxylic acid [4-(4-propane-1-sulfonyl-piperazin-1-ylmethyl)-phenyl]-amide] | * (* < 50 μM) | < 1 |  | 
CN1CCN(Cc2ccc(NC(=O)c3ccc(-c4cc(NC(=O)C5CCCCC5)ccc4Cl)cc3)cc2)CC1 [Example 249, 2′-Chloro-5′-(cyclohexanecarbonyl-amino)-biphenyl-4-carboxylic acid [4-(4-methyl-piperazin-1-ylmethyl)-phenyl]-amide] | * (* < 50 μM) | 1 to 5 |  | 
CS(=O)(=O)N1CCN(Cc2ccc(NC(=O)c3ccc(-c4cc(NC(=O)[C@H]5CCCN5)ccc4Cl)cc3)cc2)CC1 [Example 250, (R)-Pyrrolidine-2-carboxylic acid {6-chloro-4′-[4-(4-methanesulfonyl-piperazin-1-ylmethyl)-phenylcarbamoyl]-biphenyl-3-yl}-amide] | * (* < 50 μM) | < 1 |  | 
CCCS(=O)(=O)N1CCN(Cc2ccc(NC(=O)c3ccc(-c4cc(NC(=O)[C@H]5CCCCN5)ccc4Cl)cc3)cc2)CC1 [Example 251, (R)-Piperidine-2-carboxylic acid {6-chloro-4′-[4-(4-(propane-1-sulfonyl)-piperazin-1-ylmethyl)-phenylcarbamoyl]-biphenyl-3-yl}-amide] | * (* < 50 μM) | < 1 |  | 
CNCC(=O)Nc1ccc(Cl)c(-c2ccc(C(=O)Nc3ccc(CN4CCN(S(C)(=O)=O)CC4)cc3)cc2)c1 [Example 252, 2′-Chloro-5′-(2-methylamino-acetylamino)-biphenyl-4-carboxylic acid [4-(4-methanesulfonyl-piperazin-1-ylmethyl)-phenyl]-amide] | * (* < 50 μM) | < 1 |  | 
CCCS(=O)(=O)N1CCN(Cc2ccc(NC(=O)c3ccc(-c4cc(NC(=O)NC5CCCCC5)ccc4Cl)cc3)cc2)CC1 [Example 253, 2′-Chloro-5′-(3-cyclohexyl-ureido)-biphenyl-4-carboxylic acid {4-[4-(propane-1-sulfonyl)-piperazin-1-ylmethyl]-phenyl}-amide] | * (* < 50 μM) | < 1 |  | 
CC(C)S(=O)(=O)N1CCN(Cc2ccc(NC(=O)c3ccc(-c4cc(NC(=O)NC5CCCCC5)ccc4Cl)cc3)cc2)CC1 [Example 254, 2′-Chloro-5′-(3-cyclohexyl-ureido)-biphenyl-4-carboxylic acid {4-[4-(propane-2-sulfonyl)-piperazin-1-ylmethyl]-phenyl}-amide] | * (* < 50 μM) | < 1 |  | 
CN(C)S(=O)(=O)N1CCN(Cc2ccc(NC(=O)c3ccc(-c4cc(NC(=O)NC5CCCCC5)ccc4Cl)cc3)cc2)CC1 [Example 255, 2′-Chloro-5′-(3-cyclohexyl-ureido)-biphenyl-4-carboxylic acid [4-(4-dimethylsulfamoyl-piperazin-1-ylmethyl]-phenyl}-amide] | * (* < 50 μM) | < 1 |  | 
CS(=O)(=O)N1CCN(Cc2ccc(NC(=O)c3ccc(-c4cc(C(=O)Nc5ccc(N6CCOCC6)cc5)ccc4OC(F)(F)F)cc3)cc2)CC1 [Example 256, 6-Trifluoromethoxy-biphenyl-3,4′-dicarboxylic acid 4′-{[4-(4-methanesulfonyl-piperazin-1-ylmethyl)-phenyl]-amide} 3-[(4-morpholin-4-yl-phenyl)-amide]] |  |  | * (key: * < 50 μM; ** > 50 μM) | < 1
CCCS(=O)(=O)N1CCN(Cc2ccc(NC(=O)c3ccc(-c4cc(C(=O)Nc5ccc(N6CCOCC6)cc5)ccc4OC)cc3)cc2)CC1 [Example 257, 6-Methoxy-biphenyl-3,4′-dicarboxylic acid 3-[(4-morpholin-4-yl-phenyl)-amide] 4′-({4-[4-(propane-1-sulfonyl)-piperazin-1-ylmethyl]-phenyl}-amide)] | * (* < 50 μM) |  |  | < 1
COc1ccc(C(=O)Nc2ccc(N3CCOCC3)cc2)cc1-c1ccc(C(=O)Nc2ccc(CN3CCN(S(=O)(=O)C(C)C)CC3)cc2)cc1 [Example 258, 6-Methoxy-biphenyl-3,4′-dicarboxylic acid 3-[(4-morpholin-4-yl-phenyl)-amide] 4′-({4-[4-(propane-2-sulfonyl)-piperazin-1-ylmethyl]-phenyl}-amide)] | * (* < 50 μM) |  |  | < 1
COc1ccc(C(=O)Nc2ccc(N3CCOCC3)cc2)cc1-c1ccc(C(=O)Nc2ccc(CN3CCN(S(=O)(=O)N(C)C)CC3)cc2)cc1 [Example 259, 6-Methoxy-biphenyl-3,4′-dicarboxylic acid 4′-{[4-(4-dimethylsulfamoyl-piperazin-1-ylmethyl)-phenyl]-amide} 3-[(4-morpholin-4-yl-phenyl)-amide]] |  |  | * (key: * < 50 μM; ** > 50 μM) | < 1
